Reference: patent USRE43712E1, “Methods for assaying for antidepressant therapy markers” (The Board of Trustees of the Uniersity of Illinois, priority 2000, dated 2012)

How the values were obtained:
Goα = experiment: Cellular localization of Goα in C6-2B cells, immunofluorescence confocal microscopy; assay type: cell-based; conditions: 10 μM desipramine 3 days, approximately 500 cells, FIG. 9
Method: C6-2B cells (between passages 30 and 50) were plated onto coverslips and allowed to attach overnight in Dulbecco's modified Eagle's medium. 4.5 g/l glucose, 10% bovine serum, and 100 μg/ml penicillin and streptomycin at 37° C. in a humidified 10% CO2 atmosphere. […] Therefore, the latter treatment paradigm was used in these experiments because it was easier to maintain the cell cultures for 3 days. […] The culture media and drug were changed daily. […] After the treatment duration, the cells were incubated in drug-free media for 45 to 60 minutes before fixation.
After treatment, cells were washed once with phosphate-buffered saline (PBS, […] NaCl, 2.6 mM KCl, 5.4 mM NaαPO4 7H2O, pH 7.4) and fixed with ice-cold methanol for 10 minutes. Cells were then washed three times with PBS followed by 2 h of blocking in 5% normal goat serum/0.2% fish skin gelatin in PBS. Primary antibody was added for 1.5 h, Gsα/RM1 (PerkinElmer Life Sciences, Boston, Mass.) 1:50 and Goα (Santa Cruz Biotechnology, Santa Cruz, Calif.) 2 μg/ml, followed by three washes with PBS. Oregon Green-labeled secondary antibody (Molecular Probes, Eugene, Oreg.) was added at a concentration of 8 μg/ml for 1 h followed by three PBS washes. […] Approximately 2100 cells from control and desipramine-treated coverslips were counted by two investigators blind to the experimental conditions over the course of the five experiments. […]

Gsα [1] = experiment: Cellular localization of Gsα in C6-2B cells, immunofluorescence laser scanning confocal microscopy; assay type: cell-based
Gsα [2] = experiment: Detergent extraction of Gsα from rat synaptic membrane after chronic antidepressant treatment; assay type: in vivo; conditions: short-term treatment (1-day treatment of cells or 1-week treatment of rats)
Giα = experiment: Detergent extraction of Giα from C6-2B glioma membranes; assay type: cell-based; conditions: C6-2B cells, 10 μM, 3 days; FIG. 4
Method: Membrane proteins were extracted sequentially from C6-2B or rat synaptic membranes as described [Yan et al., J. Neurochem., 66:1489-1495; 1996]. These membranes were stirred on ice in HEPES (15 mM, pH 7.4) containing 1% Triton X-100 for 60 min followed by centrifugation at 100,000 g for 60 min at 4° C. The supernatant was reserved (Triton X-100 extract), and the resulting pellet was resuspended in Tris (15 mM, pH 7.4) containing 1.4% Triton X-114 and 150 mM NaCl. The solution was stirred for 60 min at 4° C. and centrifuged for 30 min at 100,000 g in the cold. The supernatant was saved (Triton X-114 extract). These supernatants and remaining pellet (remainder) were subjected to sodium dodecyl sulfate (SDS)-polyacrylamide gel electophoresis (PAGE) using 10% gels. […]
Rat cortex membrane, C6-2B cell membranes, or Triton extracts of each membrane preparation were subjected to SDS-PAGE followed by electrotransfer to polyvinylidene difluoride (PVDF) membrane. […] Immunoreactivity was detected with an enhanced chemiluminescence (ECL) western blot detection system (Amersham) in accord with the manufacturer's instructions. The developed autoradiographs were analyzed by densitometry.
Experiments were conducted (as described in Example 1) to ascertain the effect of antidepressant therapy on the mobility of Giα from C6-2B glioma cells. […] Immunoreactivity was detected with an ECL western blot detection system.

| SMILES | Change in the distribution of Goα (Goα) | Intense Gsα staining at the process tips (Gsα [1]; 3 μM for five days) | Number of cells lacking Gsα in the process tips versus control (Gsα [1]; acute treatment, one day, 10 μM) | Effect of short-term treatment on the parameters examined (Gsα [2]) | Migration of Giα to a less hydrophobic membrane fraction (Giα) |
| --- | --- | --- | --- | --- | --- |
| CNCCCN1c2ccccc2CCc2ccccc21 [Desipramine, desipramine] | little if any change | do not | not significantly different from the control |  |  |
| CNCCC(Oc1ccc(C(F)(F)F)cc1)c1ccccc1 (centres unmarked) [Fluoxetine, fluoxetine] |  |  |  | without effect | did not migrate to a less hydrophobic membrane fraction |
